Data published in paper PMC4014702, “Synthesis, In Vitro and In Vivo Evaluation of the N-ethoxycarbonylmorpholine Ester of Diclofenac as a Prodrug” (Pharmaceuticals, 2014).
Counter-ions that a name gives are not always drawn.

Key:
stomach (mucosal damage) = test: In vivo ulcerogenicity study in rats; set-up: species or system male Sprauge-Dawley rats; conditions: for number of lesions / ulcer score: single equimolar dose (diclofenac sodium 100 mg/kg, prodrug 140 mg/kg); for number of lesions: average, for the prodrug punctiform lesions; for ulcer score: sacrificed after 17 h
Experimental: The ulceroginicity of diclofenac sodium and its prepared prodrug 2 were evaluated. Three groups (six animals each) of male Sprauge-Dawley rats (150–200 gm) were fasted for 8 h prior to administration of single equimolar doses of diclofenac sodium (100 mg/kg), its prodrug (140 mg/kg), or vehicle. Free access to food and water were provided throughout the experiment. […] The stomach of the rats was dissected out of the body, and stomach content was emptied and washed with saline. The stomach was then opened and wiped with a clean swap dipped in saline. The degree of mucosal damage was assessed using a 4× binocular magnifier. The severity of the damage was assessed according to a scoring system where the presence of <5 punctiforms with no ulcers was given the score of zero. A punctiform was defined as a lesion of less than 1 mm. If >5 punctiforms were present with no ulcer, a score of 1 was given. If 1–5 small ulcers (1–2 mm in diameter) were observed, a score of 2 was given. If >5 small ulcers or one large ulcer (>2 mm in diameter) was present, a score of […] was given. If >1 large ulcer was observed, a score of 4 was given. The scores were averaged and the mean score was tabulated as ulcerogenicity index for the drugs under investigation.

[1] = Hydrolysis kinetics in human plasma; assay type: in vitro ADME; conditions: 37 ± 0.3 °C
Experimental: (§1) The HPLC analysis was performed using LaChrom Merck Hitachi system that consists of a D-7000 interface, L-7200 diode array detector, pump L-7150 and D-7000HSM software (Schaumburg, IL, USA). The UV detector was set at 280 nm wave length. The HPLC column was an Agela unisol-C18, 5 micron 4.6 × 150. Mobile phase was 80% methanol, 20% water. To each litre, 2 mL acetic acid were added. The mobile phase was pumped at flow rate 1.5 mL/min. The retention times were: 5.17 min 6.19 min and 7.15 min for 2-hydroxyethyldiclofenac, diclofenac sodium and the morpholine prodrug, respectively (Figure 2). The analytical method was fully validated.
The prodrug under investigations was incubated in human plasma using a shaking water bath, which was set at 37 ± 0.3 °C. An amount of 25 µL of 1.0 mg/mL stock solution of the prodrug under investigation was added to 5 mL of the incubated plasma. At appropriate time points, samples of 100 μL were withdrawn and deproteinized by adding equal volumes of acetonitrile. The formed mixture was mixed on a vortex then centrifuge at 2,500 rpm for 10 min. The clear supernatant was analyzed using the HPLC method.

[2] = Hydrolysis kinetics in aqueous buffer solution; assay type: physicochemical; conditions: about 37 °C
Experimental: as §1
The prodrug under investigation was incubated in 0.1 N HCl (pH 1.0) and phosphate buffer (pH 7.4). The formed solutions were kept in a shaking water bath at about 37 °C for eight h. At appropriate intervals, samples (100 µL) were analyzed using the HPLC method described earlier.

SMILES	lesions larger than 2 mm (stomach (mucosal damage); single dose diclofenac sodium 100 mg/kg, 17 h)	number of lesions (stomach (mucosal damage); 17 h)	ulcer score (stomach (mucosal damage))	half-life at 5 µg/mL [1] [h]	half-life ([2]; pH 1 (0.1 N HCl)) [h]	half-life ([2]; pH 7.4 (phosphate buffer)) [h]
O=C(O)Cc1ccccc1Nc1c(Cl)cccc1Cl [Compound 1, 2-[(2,6-dichloro-phenyl])amino]benzeneacetic acid sodium salt]	six	82	four	–	–	–
O=C(Cc1ccccc1Nc1c(Cl)cccc1Cl)OCCOC(=O)N1CCOCC1 [Compound 2]	–	less than five	zero	0.35	8	47
